Consider three compounds from patent US12589078B2, “Lipid nanoparticles for delivery of nucleic acids” (CureVac SE, priority 2019, dated 2026).

One experiment concerns rabies virus. Type of experiment: in vivo, mice. To be noted: all animals, day 21 after prime.
Experiment [1] in a line: Particle size and PDI by dynamic light scattering (Malvern Zetasizer Nano). Type of experiment: physicochemical.
A short description of experiment [2]: Zeta potential by Laser Doppler Microelectrophoresis. Type of experiment: physicochemical.
Experiment [3] deals with tumor antigen Trp2. Description: Trp2 mRNA vaccination i.d.: IgG1/IgG2 endpoint titers (ELISA). To be noted: C57/BL6 mice, day 0, 7, 14.
In experiment [4] the test system is tumor antigen Trp2. Description: Trp2 mRNA vaccination i.d.: T-cell response (TNFα+/IFNγ+ CD4+/CD8+). As to conditions: C57/BL6 mice, day 0, 7, 14.
Experiment [5] deals with malaria [NANP]7 peptide or C-terminus peptides. Description: Malaria CSP mRNA vaccination: ELISA endpoint titers. It is filed as in vivo, mice. To be noted: CSP mRNA i.m., day 35 post prime, Example 22. The text has this: The mRNA was further enzymatically capped using ScriptCap™ m7G Capping System (CellScript, Madison,WI., USA) according to the manufacturer's instructions and enzymatically polyadenylated using a commercial polyadenylation kit, resulting in SEQ ID NO:38.
The GN01-LNP formulations were applied on days 0 and 21 intramuscularly (i.m.; musculus tibialis) with doses of RNA, formulations, and control groups as shown in Table Ex-20. A negative control group received vaccinations with an irrelevant RNA, formulated in GN01-LNPs. Serum samples were taken at day 21 and day 35 for ELISA.
ELISA was performed using malaria [NANP]7 peptide or C-terminus peptides for coating. Coated plates were incubated using respective serum dilutions, and binding of specific antibodies to the respective malaria [NANP]7 or C-terminus peptide were detected using biotinylated isotype specific anti-mouse antibodies followed by streptavidin-HRP (horse radish peroxidase) with Amplex™ Red Reagent as substrate. Endpoint titers of antibodies (IgG1, IgG2a) directed against the malaria [NANP]7 or C-terminus peptide were measured by ELISA on day 21 and day 35 post prime. […]
ELISA was performed using malaria [NANP]7 peptide for coating. […] Endpoint titers of antibodies (total IgG or IgG as indicated in the respective Figures) directed against the malaria [NANP]7 peptide were measured by ELISA on day 35 post prime.
A general note: ELISA stands for enzyme-linked immunosorbent assay.

Several values for one entry are separate records, joined by “and”; a condition that tells them apart may be missing. Equal values may be shown once. Read-outs that look alike come from different tables or passages of the source.

The compound `CCCCCCCCC(CCCCCC)COC(=O)CCCC(=O)OCCC1CCN(CCSSCCN2CCC(CCOC(=O)CCCC(=O)OCC(CCCCCC)CCCCCCCC)CC2)CC1` (centres unmarked) [Lipid C2, O1-[2-[1-[2-[2-[4-[2-[5-(2-hexyldecoxy)-5-oxo-pentanoyl]oxyethyl]-1-piperidyl]ethyldisulfanyl]ethyl]-4-piperidyl]ethyl] 05-(2-hexyldecyl) pentanedioate] gave a VNTs in the experiment with rabies virus (single i.m. 5 μg RABV-G-mRNA) of more than 0.5 IU/ml.

Turning to `CCN1CCC(CCOC(=O)C(CCSSCCC(NC(=O)CC(=O)Oc2c(C)c(C)c3c(c2C)CCC(C)(CCCC(C)CCCC(C)CCCC(C)C)O3)C(=O)OCCC2CCN(CC)CC2)NC(=O)CC(=O)Oc2c(C)c(C)c3c(c2C)CCC(C)(CCCC(C)CCCC(C)CCCC(C)C)O3)CC1` (centres unmarked) [Lipid C10, VitE-C4DE-CysPipSS], in experiment [1], the PDI is 0.50 and 0.34; the size was 103 nm and 67 nm. Further, the zeta potential in experiment [2] was 36.00 mV and 26.00 mV. In the experiment with tumor antigen Trp2 [3], the “IgG1 and IgG2 titers” value is “stable IgG1 and IgG2 titers”. Moreover, the T-cell responses result with tumor antigen Trp2 [4] is recorded as “low T-cell responses”.

`Cc1c(C)c2c(c(C)c1OC(=O)CCC(=O)OCCC1CCN(CCSCCN3CCC(CCOC(=O)CCC(=O)Oc4c(C)c(C)c5c(c4C)CC[C@@](C)(CCC[C@H](C)CCC[C@H](C)CCCC(C)C)O5)CC3)CC1)CC[C@@](C)(CCC[C@H](C)CCC[C@H](C)CCCC(C)C)O2` [Lipid C26, VitE-C4DE-Piperidine-Thioether] came in with a VNTs with rabies virus (single i.m. 1 μg RABV-G-mRNA) of more than 0.5 IU/ml. Besides, in experiment [5], the “IgG1 endpoint titers ([NANP]7 peptide)” value was “very strong humoral immune responses”.
